From US20240150377A1, “MODULATORS OF CYSTIC FIBROSIS TRANSMEMBRANE CONDUCTANCE REGULATOR” (VERTEX PHARMACEUTICALS INCORPORATED, priority 2020, published 2024)
Like-named read-outs stand apart in the source and are kept apart here.

Key:
F508del = molecular target: T1, F508del (Homo sapiens, UniProt P13569, DEL508-508); assay: 3T3 assay: membrane potential optical assay for F508del correction; assay type: cell-based; conditions: F508del NIH 3T3 cells; for Emax: NIH3T3, compared to lumacaftor in combination with acutely added 300 nM Ivacaftor, read-out: 3T3 Max Activity; for EC50: 18-24 hours at 37° C., forskolin, acutely added 300 nM Ivacaftor
T1 construct: expressed in transfected cells
Text: 1. Membrane Potential Optical Methods for Assaying F508del Modulation Properties of Compounds
The assay utilizes fluorescent voltage sensing dyes to measure changes in membrane potential using a fluorescent plate reader (e.g., FLIPR III, Molecular Devices, Inc.) as a readout for increase in functional F508del in NIH 3T3 cells. The driving force for the response is the creation of a chloride ion gradient in conjunction with channel activation by a single liquid addition step after the cells have previously been treated with compounds and subsequently loaded with a voltage sensing dye.
2. Identification of Corrector Compounds
To identify correctors of F508del, a single-addition HTS assay format was developed. This HTS assay utilizes fluorescent voltage sensing dyes to measure changes in membrane potential on the FLIPR III as a measurement for increase in gating (conductance) of F508del in F508del NIH 3T3 cells. The F508del NIH 3T3 cell cultures were incubated with the corrector compounds at a range of concentrations for 18-24 hours at 37° C., and subsequently loaded with a redistribution dye. The driving force for the response is a Cl^− ion gradient in conjunction with channel activation with forskolin in a single liquid addition step using a fluorescent plate reader such as FLIPR III.
Bath Solution #1: (in mM) NaCl 160, KCl 4.5, CaCl2) 2, MgCl2 1, HEPES 10, pH 7.4 with NaOH.
Chloride-free bath solution: Chloride salts in Bath Solution #1 (above) are substituted with gluconate salts.
NIH3T3 mouse fibroblasts stably expressing F508del are used for optical measurements of membrane potential. The cells are maintained at 37° C. in 5% CO2 and 90% humidity in Dulbecco's modified Eagle's medium supplemented with 2 mM glutamine, 10% fetal bovine serum, 1× NEAA, b-ME, 1×pen/strep, and 25 mM HEPES in 175 cm^2 culture flasks. For all optical assays, the cells were seeded at ˜20,000/well in 384-well Matrigel-coated plates. For the correction assays, the cells are cultured at 37° C. with and without compounds for 16-24 hours.

CFTR = CFTR (Homo sapiens, UniProt P13569); assay: Membrane potential dye, Enteroid Assay A; assay type: cell-based; conditions: for Ent. A Max Activity: chloride transport as % of triple combination control (Enteroid Assay A); for EC50: human enteroid cells, 18-24 hours, acute 10 μM forskolin and 300 nM ivacaftor, read-out: Ent. A EC50
Summary of the method: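 % Activity: chloride transport relative to a 3 μM/3 μM corrector pair plus 300 nM acute potentiator control. Primary human enteroid cells, 18-24 h compound exposure at 37 °C; membrane potential dye (methyl oxonol) fluorescence over 15 min after forskolin (10 μM)/IBMX (100 μM)/Compound III (300 nM) stimulation in chloride-free buffer.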

T1 sequence (P13569 with tags, fused parts or gaps DEL508-508): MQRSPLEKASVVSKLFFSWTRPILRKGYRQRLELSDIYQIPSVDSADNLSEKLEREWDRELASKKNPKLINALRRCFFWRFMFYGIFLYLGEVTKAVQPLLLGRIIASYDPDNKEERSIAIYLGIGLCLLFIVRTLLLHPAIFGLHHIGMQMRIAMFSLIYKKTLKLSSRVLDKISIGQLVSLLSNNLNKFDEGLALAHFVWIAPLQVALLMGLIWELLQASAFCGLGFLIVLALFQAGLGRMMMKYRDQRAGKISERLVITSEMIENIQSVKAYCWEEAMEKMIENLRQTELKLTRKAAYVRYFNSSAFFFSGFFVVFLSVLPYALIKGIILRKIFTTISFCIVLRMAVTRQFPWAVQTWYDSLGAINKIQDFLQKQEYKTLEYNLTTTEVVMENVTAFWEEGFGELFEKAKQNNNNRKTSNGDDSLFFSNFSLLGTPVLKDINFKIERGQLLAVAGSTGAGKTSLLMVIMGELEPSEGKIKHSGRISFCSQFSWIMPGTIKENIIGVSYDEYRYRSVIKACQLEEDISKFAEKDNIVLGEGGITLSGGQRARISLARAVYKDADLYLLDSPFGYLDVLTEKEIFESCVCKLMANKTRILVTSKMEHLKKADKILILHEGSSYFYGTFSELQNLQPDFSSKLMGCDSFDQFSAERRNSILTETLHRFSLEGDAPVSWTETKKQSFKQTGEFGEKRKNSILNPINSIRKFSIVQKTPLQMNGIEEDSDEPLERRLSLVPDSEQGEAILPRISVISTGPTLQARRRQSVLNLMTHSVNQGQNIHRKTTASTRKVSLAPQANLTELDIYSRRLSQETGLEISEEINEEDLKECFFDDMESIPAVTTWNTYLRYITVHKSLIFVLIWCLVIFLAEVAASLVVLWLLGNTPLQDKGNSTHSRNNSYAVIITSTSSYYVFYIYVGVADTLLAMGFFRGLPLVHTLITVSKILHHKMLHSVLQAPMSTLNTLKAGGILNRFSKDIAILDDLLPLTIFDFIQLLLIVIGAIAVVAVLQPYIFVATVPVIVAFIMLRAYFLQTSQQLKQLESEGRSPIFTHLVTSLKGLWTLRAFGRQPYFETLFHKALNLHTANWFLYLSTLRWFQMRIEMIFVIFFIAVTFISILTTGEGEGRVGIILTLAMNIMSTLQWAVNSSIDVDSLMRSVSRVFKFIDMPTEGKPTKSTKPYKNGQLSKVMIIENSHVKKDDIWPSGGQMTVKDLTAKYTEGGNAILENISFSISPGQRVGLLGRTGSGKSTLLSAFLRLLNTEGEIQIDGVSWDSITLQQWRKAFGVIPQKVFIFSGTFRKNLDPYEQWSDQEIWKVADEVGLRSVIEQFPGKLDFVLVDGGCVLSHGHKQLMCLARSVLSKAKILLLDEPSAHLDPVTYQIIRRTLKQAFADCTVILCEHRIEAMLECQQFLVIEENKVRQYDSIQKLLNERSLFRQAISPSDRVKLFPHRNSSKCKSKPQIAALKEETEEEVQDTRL
Chain of CFTR (P13569 with tags, fused parts or gaps DEL508-508): as above

| Emax (F508del; Table 7) | EC50 (F508del; Table 7) | Ent. A Max Activity (CFTR; Table 7) | EC50 (CFTR; Table 7) | Emax (F508del; Table 6) | EC50 (F508del; Table 6) | Ent. A Max Activity (CFTR; Table 6) | EC50 (CFTR; Table 6) | SMILES |
| --- | --- | --- | --- | --- | --- | --- | --- | --- |
| > 60% | < 1 µM | ++ (++ is 30-60%) | < 1 µM | – | – | – | – | Cc1cccc(C)c1-c1cc2nc(n1)NS(=O)(=O)c1cccc(c1)C(=O)N(C)C[C@H](c1ccc(C3CC3)cc1)O2 [Compound 669] |
| > 60% | < 1 µM | + (+ is <30%) | 1 to 3 µM | – | – | – | – | Cc1cccc(C)c1-c1cc2nc(n1)NS(=O)(=O)c1cccc(c1)C(=O)N(C)C[C@@H](c1ccc(C(C)(C)C)cn1)O2 (single isomer, unassigned) [Compound 102, 10-(5-tert-butyl-2-pyridyl)-6-(2,6-dimethylphenyl)-12-methyl-2,2-dioxo-9-oxa-2λ^6-thia-3,5,12,19-tetrazatricyclo[12.3.1.14,8]nonadeca-1(18),4(19),5,7,14,16-hexaen-13-one] |
| > 60% | < 1 µM | ++ (++ is 30-60%) | < 1 µM | – | – | – | – | Cc1cccc(C)c1-c1cc2nc(n1)NS(=O)(=O)c1cccc(c1)CN(CCC1(C(F)(F)F)CC1)[C@H](CC(C)C)CO2 [Compound 1024] |
| > 60% | < 1 µM | +++ (+++ is >60%) | < 1 µM | – | – | – | – | Cc1cccc(C)c1-c1cc2nc(n1)NS(=O)(=O)c1cccc(c1)CN(Cc1ccnnc1)[C@H](CC(C)C)CO2 [Compound 47, (11R)-6-(2,6-dimethylphenyl)-11-(2-methylpropyl)-12-[(pyridazin-4-yl)methyl]-9-oxa-2λ^6-thia-3,5,12,19-tetraazatricyclo[12.3.1.14,8]nonadeca-1(17),4,6,8(19),14(18),15-hexaene-2,2-dione] |
| – | – | – | – | > 60% | < 1 µM | +++ (+++ is >60%) | < 1 µM | COc1ccc(CN2C(=O)c3cccc(c3)S(=O)(=O)Nc3nc(cc(-c4c(C)cccc4C)n3)OC[C@H]2CC(C)C)cc1 [Compound 347] |

Second part, the compound before the results:

| SMILES | Emax (F508del; Table 7) | EC50 (F508del; Table 7) | Ent. A Max Activity (CFTR; Table 7) | EC50 (CFTR; Table 7) | Emax (F508del; Table 6) | EC50 (F508del; Table 6) | Ent. A Max Activity (CFTR; Table 6) | EC50 (CFTR; Table 6) |
| --- | --- | --- | --- | --- | --- | --- | --- | --- |
| Cc1cccc(C)c1-c1cc2nc(n1)NS(=O)(=O)c1cccc(c1)CN(CCC(F)(F)F)[C@H](CC(C)C)CO2 [Compound 1021] | > 60% | < 1 µM | ++ (++ is 30-60%) | < 1 µM | – | – | – | – |
| Cc1cccc(C)c1-c1cc2nc(n1)NS(=O)(=O)c1cccc(c1)C(=O)N(CCC1CCN(C)CC1)[C@H](CC(C)C)CO2 [Compound 418] | – | – | – | – | > 60% | < 1 µM | +++ (+++ is >60%) | < 1 µM |
| Cc1cccc(C)c1-c1cc2nc(n1)NS(=O)(=O)c1cccc(c1)C(=O)N(CCC1CCOCC1)[C@H](CCC1(C(F)(F)F)CC1)CO2 (single isomer, unassigned) [Compound 72, 6-(2,6-Dimethylphenyl)-2,2-dioxo-12-(2-tetrahydropyran-4-ylethyl)-11-[2-[1-(trifluoromethyl)cyclopropyl]ethyl]-9-oxa-2λ^6-thia-3,5,12,19-tetrazatricyclo[12.3.1.14,8]nonadeca-1(18),4(19),5,7,14,16-hexaen-13-one] | – | – | – | – | > 60% | < 1 µM | +++ (+++ is >60%) | < 1 µM |
| Cc1cccc(C)c1-c1cc2nc(n1)NS(=O)(=O)c1cccc(c1)C(=O)N(CCC(C)C)[C@H](CCC1(C(F)(F)F)CC1)CO2 [Compound 850] | – | – | – | – | > 60% | < 1 µM | +++ (+++ is >60%) | < 1 µM |
| Cc1cccc(C)c1-c1cc2nc(n1)NS(=O)(=O)c1cccc(c1)C(=O)N(C)C[C@@H](c1ccc(C3CC3)cc1)O2 [Compound 668] | > 60% | < 1 µM | – | – | – | – | – | – |
| CCCCCN1C(=O)c2cccc(c2)S(=O)(=O)Nc2nc(cc(-c3c(C)cccc3C)n2)OC[C@H]1CC(C)C [Compound 362] | – | – | – | – | > 60% | < 1 µM | +++ (+++ is >60%) | < 1 µM |
| Cc1cccc(C)c1-c1cc2nc(n1)NS(=O)(=O)c1cccc(c1)C(=O)N(CCC(C)(C)C)C(C(F)(F)F)CO2 (centres unmarked) [Compound 373] | > 60% | 1 to 3 µM | – | – | – | – | – | – |
